Measured values published in patent US12263248B2, “Compounds and compositions for intracellular delivery of therapeutic agents” (ModernaTX, Inc., priority 2018, dated 2025).

Experiments:
IL-6, IP-10 = test: Cytokine induction in mice upon intravenous administration; assay type: in vivo; parameters: Cytokine induction IL-6 / Cytokine induction IP-10: unit not given here; conditions: 0.5 mpk, 6 hours; for Cytokine induction IL-6 / Cytokine induction IP-10: intravenous; for IL-6 induction: i.v., in words
Excerpt: The introduction of foreign material into a mammalian body induces an innate immune response that promotes cytokine production. Such immune responses to, for example, nanoparticle compositions including therapeutic and/or prophylactics, are undesirable. The induction of certain cytokines is thus measured to evaluate the […] of nanoparticle compositions. The concentrations of various cytokines in mice upon intravenous administration of nanoparticle compositions presented in Table 1A at a dosage of 0.5 mpk was measured at 6 hours. The standard MC3 formulation and a PBS control were also tested. As is evident in Table 7, IL-6 induction was highest for compositions including Compounds 1, 3, 9, 19, and 26, while IP-10 induction was highest for compositions including Compounds 3, 4, 7, 20, and 26. IL-6 induction was lowest for compositions including Compounds 4, 11, 12, and 28. IP-10 induction was lowest for compositions including Compounds 10, 11, 12, 13, 15, 17, and 18.

[1] = Chemical stability of lipids in ethanol (lipid purity); assay type: physicochemical
Method: Ester linkages were previously reported to trigger metabolism by esterases in vivo. (See Fukami, T. et al. Drug Metab. Pharmacokinet. 2012, 27, 466-477, the content of which is incorporated by reference herein in its entirety). […] (See Maier M. A., Mol. Ther. 2013, 21, 1570-1578, the content of which is incorporated herein in its entirety) First, the chemical stability of the lipids was evaluated by measuring ethanol stability at room temperature and 37° C. (Table 39). […] LNPs formed with compound 138 were larger, with a surface pKa>7. […] Removal of one ester function (compound 136) afforded LNPs with improved physiochemical characteristics and lower LNP surface pKa.

luciferase (Luc) mRNA [2] = test: Luc expression, whole body bioluminescence after intravenous administration to mice; assay type: in vivo; conditions: for Total Flux 3 hours / Total Flux 6 hours / Total Flux 24 hours / luciferase activity relative to MC3 LNP control / flux at all timepoints measured: mice; for Total Flux 3 hours / Total Flux 6 hours / Total Flux 24 hours / flux at all timepoints measured: i.v., 0.5 mg/kg; for Total Flux 3 hours / Total Flux 6 hours / Total Flux 24 hours: Luc mRNA; for luciferase activity relative to MC3 LNP control: intravenous, 0.5 mg/kg (mRNA dose); for flux at all timepoints measured: 3, 6 and 24 hour, in words
How it was run: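 Luc mRNA nanoparticle formulations given intravenously to mice (n=6) at 0.5 mg/kg; whole-body bioluminescence imaged at 3, 6 and 24 h. CD-1 mice received IP D-luciferin (200 μL of 15 mg/mL) 15 min before imaging; total flux quantified by region of interest.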

[3] = Apparent (surface) pKa of the LNP formulation (TNS assay); assay type: physicochemical
How it was run: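 LNP (0.04 mg/mL mRNA) mixed with TNS reagent in 21 buffers spanning about pH 3-12, in triplicate; fluorescence plotted against pH as sigmoidal curve. Apparent pKa taken as […] curve inflection point; validated in 1× PBS and 20 mM Tris w/8% sucrose.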

luciferase (Luc) mRNA [4] = test: Luc expression in liver, lung, spleen and femur 6 hours after intravenous administration; assay type: in vivo; conditions: mice, 0.5 mpk; for Total Flux Femur / Total Flux Liver / Total Flux Lung / Total Flux Spleen: intravenous
How it was run: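 LNP-formulated mRNA given IV to mice (n=3) at 0.5 mpk; at 6 h, bioluminescence imaged ex vivo 15 min after IP D-luciferin (15 mg/mL, 200 μL), organs imaged within 25 min. Values are total flux by region of interest.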

[5] = Particle size and polydispersity index of nanoparticle compositions (Zetasizer Nano ZS); assay type: physicochemical; conditions: for PDI / Size (nm): Table 1A; for Size (nm): lipid:DSPC:cholesterol:PEG-DMG 50:10:38.5:1.5 mol %; for PDI (Polydispersity index) / Size: lipid nanoparticle, ±SD within one assay run (Table 37)
How it was run: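 Particle size and PDI were measured on a Zetasizer Nano ZS with the nanoparticle compositions dispersed in 1×PBS.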

[6] = Encapsulation efficiency of RNA (QUANT-IT RIBOGREEN RNA assay); assay type: physicochemical; conditions: for EE (%): Table 1A; for % Encapsulation: lipid nanoparticle, ±SD within one assay run (Table 37)
How it was run: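 RiboGreen fluorescence (ex ~480, em ~520 nm) compared between intact samples and Triton X-100-lysed samples after 15 min at 37 °C in TE buffer, pH 7.5. Percent free RNA is the blank-corrected intact/disrupted ratio.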

sC5b-9 = test: Complement activation in vitro (sC5b-9 levels); assay type: cell-based; conditions: human cells contacted in vitro; for sC5b-9 levels relative to saline: in words
Method: Complement activation assists in the clearance of pathogens from an organism. As it is undesirable that a subject's body recognize a nanoparticle composition as a foreign invader, low complement system activation upon administration of such a composition is preferred. The complex sC5b-9 is a marker for the activation of the complement system. Thus, human cells were contacted in vitro with nanoparticle compositions according to Table 1A and were evaluated for sC5b-9 levels.

[7] = Lipid clearance: lipid level in mouse liver tissue (LC-MS/MS); assay type: in vivo
Method: Quantification of Lipid by LC-MS/MS: Liver samples were homogenized following addition of 19 eq. (w/v) of water (DF=20). Protein was precipitated and analyzed against calibration standards prepared in matching blank. Chromatographic separation and quantification was accomplished with a LC-MS/MS System. Samples were injected and separated via HPLC A triple-quadrupole MS/MS system operated in positive ion mode was used for signal detection.

[8] = lipid nanoparticle, ±SD within one assay run (Table 37)

Structure (SMILES)	Cytokine induction IL-6 (IL-6, IP-10)	Cytokine induction IP-10 (IL-6, IP-10)	Lipid Purity ([1]; t = 0) [%]	Lipid Purity ([1]; t = 96 h, 25° C.) [%]	Lipid Purity ([1]; t = 96 h, 37° C.) [%]	Total Flux 3 hours (luciferase (Luc) mRNA [2])	Total Flux 6 hours (luciferase (Luc) mRNA [2])	Total Flux 24 hours (luciferase (Luc) mRNA [2])	luciferase activity relative to MC3 LNP control (luciferase (Luc) mRNA [2])	pKa ([3]; Table 1A)	pKa [3, 8]	Total Flux Femur (luciferase (Luc) mRNA [4])	Total Flux Liver (luciferase (Luc) mRNA [4])	Total Flux Lung (luciferase (Luc) mRNA [4])	Total Flux Spleen (luciferase (Luc) mRNA [4])	PDI [5]	Size (nm) [5] [nm]	PDI (Polydispersity index) [5]	EE (%) [6] [%]	Fold increase in sC5b-9 levels versus saline (sC5b-9)	further results
CCCCCCCCCOC(=O)CCCCCCCN(CCCCCCCC(=O)OC(CCCCCCCC)CCCCCCCC)CCN(C)C [Compound 14, Heptadecan-9-yl 8-((2-(dimethylamino)ethyl)(8-(nonyloxy)-8-oxooctyl)amino)octanoate]	75.29	621.49	92.08	92.07	91.90	4.43E+08	2.29E+09	1.39E+08	complete loss of delivery efficiency	6.58	6.58 ± 0.11	4.91E+06	1.91E+08	4.74E+06	1.92E+08	0.15	130.1	0.15 ± 0.07	95.24		Size [5]: 130.1 ± 3.5 nm; % Encapsulation [6]: 95.2 ± 0.5%
CCCCCCCCCCCCCCCCCCN(CCO)CCCCCCCC(=O)OC(CCCCCCCC)CCCCCCCC [Compound 1, Heptadecan-9-yl 8-((2-hydroxyethyl)(octadecyl)amino)octanoate]	267.24	687.14				3.48E+09	3.40E+09	4.10E+08		6.50		7.52E+05	4.02E+08	1.72E+06	4.27E+06	0.091	72.7		97.04	0.82	IL-6 induction (IL-6, IP-10): highest; Fold increase in total body Luc Flux relative to MC3 at 6 h (luciferase (Luc) mRNA [2]; Table 3A, i.v. administration): 0.40; sC5b-9 levels relative to saline (sC5b-9): slightly decrease
CCCCCCCCCOC(=O)CCCCCCCN(CCCCCCCC(=O)OC(CCCCCCCC)CCCCCCCC)CCCNC(=O)C(C)(C)COC [Compound 281, Heptadecan-9-yl 8-((3-(3-methoxy-2,2-dimethylpropanamido)propyl)(8-(nonyloxy)-8-oxooctyl)amino)octanoate]			95.17	95.15	96.47				two-fold lower		6.79 ± 0.37							0.14 ± 0.05			% dose remaining Mouse liver tissue, 24 h ([7]; CD-1 mouse liver 24 h after 0.5 mg/kg bolus dose mRNA, n = 5 ± S.D.): 66 ± 22%; original dose remaining in liver tissue 24 hours post dose ([7]; mice, intravenous): 66%; Size [5]: 93.8 ± 5.6 nm; % Encapsulation [6]: 96.9 ± 1.2%
CCCCCCCCCCCOC(=O)CCCCCN(CCO)CCCCCC(=O)OCCCCCCCCCCC [Compound 141, Diundecyl 6,6′-((2-hydroxyethyl)azanediyl)dihexanoate]	327.15	1072.04					1.21E+06	3.49E+05		7.47		2.86E+04	1.59E+05	3.85E+04	6.29E+04	0.99	91.3		94.1	1.81	flux at all timepoints measured (luciferase (Luc) mRNA [2]): significantly lower flux; Flux in the liver (luciferase (Luc) mRNA [4]; i.v., in words): lowest; Flux in the spleen (luciferase (Luc) mRNA [4]; i.v., in words): lowest
CCCCCC/C=C\COC(=O)CCCCCCCN(CCO)CCCCCCCC(=O)OC/C=C\CCCCCC [Compound 139, Di((Z)-non-2-en-1-yl) 8,8′-((2-hydroxyethyl)azanediyl)dioctanoate]	23.57	153.36				3.50E+07	1.17E+07	5.89E+05		7.04		5.12E+04	8.27E+05	5.26E+04	2.10E+06	0.54	174.0		78.2	0.73	
CCCCCCCCCOC(=O)CCCCCCCN(CCCCCCCC(=O)OC(CCCCCCCC)CCCCCCCC)CCOC(C)=O [Compound 9, Heptadecan-9-yl 8-((2-acetoxyethyl)(8-(nonyloxy)-8-oxooctyl)amino) octanoate]	317.45	366.53				1.43E+08	3.46E+06	1.01E+06		4.87		2.57E+04	4.30E+05	2.56E+04	5.51E+04	0.12	68.5		75.7	0.92	IL-6 induction (IL-6, IP-10): highest; flux at all timepoints measured (luciferase (Luc) mRNA [2]): significantly lower flux; sC5b-9 levels relative to saline (sC5b-9): slightly decrease; Flux in the spleen (luciferase (Luc) mRNA [4]; i.v., in words): lowest
